Experimental data from patent publication US6087358A (priority 1997, dated 2000).
Converted amounts (≈) assume the structure as drawn. Like-named read-outs stand apart in the source and are kept apart here.

Key:
[1] = tested on: Mycobacterium bovis (rBCG-lux); experiment: microbe, parasite or virus in culture; type: cell-based, Mycobacterium bovis bacille Calmette Guerin; settings: Mycobacterium tuberculosis variant bovis, 72 h; read-out: % of control, measured in RLUs
Helicobacter pylori = experiment: In vitro inhibition of Helicobacter pylori (broth microdilution MIC); settings: for MICs of control drugs relative to expected values: H. pylori ATCC 43; for MIC: Helicobacter pylori
[2] = tested on: M. tuberculosis H37 Rv in human THP-1 macrophages; experiment: In vitro activity against M. tuberculosis in human macrophages (luciferase bioluminescence); type: cell-based, Mycobacterium tuberculosis, in human THP-1 cells
[3] = tested on: Mycobacterium bovis BCG (recombinant strain); experiment: microbe, parasite or virus in culture; type: cell-based; settings: 6 days 37° C.; for MIC: Mycobacterium tuberculosis variant bovis BCG, BCG, 144 h, read-out: MIC, column A, 3(S) compounds
[4] = tested on: Clostridium difficile ATCC 17857; experiment: In vitro inhibition of Clostridium difficile (Oxyrase broth microdilution MIC); type: cell-based; settings: Clostridioides difficile, ATCC17857; Clostridium difficile ATCC 17857, Oxyrase broth; read-out: MIC, column D, 3(S) compounds
Cryptosporidium parvum = experiment: Inhibition of Cryptosporidium parvum (ELISA, infected HCT-8 monolayers); type: cell-based; settings: for inhibition at 25 µg/mL / inhibition at 50 µg/mL / inhibition at 100 µg/mL / inhibition at 200 µg/mL: Cryptosporidium parvum, HCT-8, read-out: Percent Inhibition of C. parvum; for inhibition at 25 µg/mL / inhibition at 50 µg/mL / inhibition at 100 µg/mL / inhibition at 200 µg/mL / Percent Inhibition of C. parvum: 48 h
Procedure: Susceptibility testing against Cryptosporidium was performed according to published procedures (K. Woods, M. Nesterenko, S. Upton, "Development of a microtiter ELISA to quantify development of Cryptosporidium parvum in vitro," FEMS Microbiology Letters, 128:89-94 (1995).
Compounds were solubilized to a concentration of 100 mg/mL in 100% DMSO. DMSO solutions of test compounds were added to the test wells of a microplate at a volume that produced a final concentration of DMSO of 0.2%. Monolayers of human ileocecal adenocarcinoma cells (HCT-8) were prepared by growth in RPMI 1640 medium in 96-Well tissue culture trays for 24 h. Oocysts of C. parvum were allowed to excyst in 10% bleach for 10 min prior to use. Monolayers were then infected with 2-3×10^4 oocysts/well and incubated in the presence or absence of compound for 48 h at 35° C. in 5% CO2 and 95% humidity. Background consisted of wells containing killed oocysts (freeze thaw cycle following 30 sec exposure to liquid nitrogen). Growth control wells were infected with 2-3×10^4 oocysts/well in the absence of test compounds. At the end of incubation, wells were washed and fixed by adding 100 uL of 4% formalin in phosphate buffered saline (pH 7.3) per well for 2 h. After blocking with 1% bovine serum albumin, and 0.002% Tween 20, 50 uL of rat anti-Cryptosporidium membrane protein antiserum was added. After 30 min, wells were washed in PBS and 50 uL of secondary antibody (goat anti-rat antibody conjugated with horseradish peroxidase) was added. After 20-30 min, wells were washed again in PBS and 50 uL of 3,3',5,5'-tetramethylbenzidine solution was added. Plates were allowed to develop for 10-15 min and the optical density was read at 630 nm. Percent inhibition was calculated by comparing the optical density of the drug treated group to that of the untreated control.

[5] = 72 h, read-out: MIC against Helicobacter pylori, strain 17 (Table 5A)
[6] = 72 h, read-out: MIC against Helicobacter pylori, strain 19 (Table 5A)
[7] = 72 h, read-out: MIC against Helicobacter pylori, strain 20 (Table 5A)
[8] = 72 h, read-out: MIC against Helicobacter pylori, strain 40 (Table 5A)
[9] = 72 h, read-out: MIC against Helicobacter pylori, strain 43 (Table 5A)
[10] = 72 h, read-out: MIC against Helicobacter pylori, strain 76 (Table 5A)
[11] = ATCC43504, 72 h, read-out: MIC against Helicobacter pylori, strain ATCC 43504 (Table 5A)

## NCC[C@H](O)C(=O)N[C@@H]1C[C@H](N)[C@@H](O[C@H]2O[C@H](CN)[C@@H](O)[C@H](O)[C@H]2O)[C@H](O)[C@H]1O[C@H]1O[C@H](CO)[C@@H](O)[C@H](N)[C@H]1O [Amikacin]
[1]
  activity at 0.15 µg/mL: 52.9%
  activity at 0.31 µg/mL: 31.7%
  activity at 0.62 µg/mL: 18.9%
  activity at 1.25 µg/mL: 18.1%
  activity at 2.5 µg/mL: 10.7%
  activity at 5 µg/mL: 5.2%

## CC1(C)S[C@@H]2[C@H](NC(=O)[C@H](N)c3ccc(O)cc3)C(=O)N2[C@H]1C(=O)O [Amoxicillin, reference compound]
Helicobacter pylori
  MICs of control drugs relative to expected values: within the expected values
Helicobacter pylori; [5]
  MIC: 0.016 µg/mL (≈ 0.0438 µM)
Helicobacter pylori; [6]
  MIC: 0.016 µg/mL (≈ 0.0438 µM)
Helicobacter pylori; [7]
  MIC: 0.032 µg/mL (≈ 0.0876 µM)
Helicobacter pylori; [8]
  MIC: 0.032 µg/mL (≈ 0.0876 µM)
Helicobacter pylori; [9]
  MIC: 0.016 µg/mL (≈ 0.0438 µM)
Helicobacter pylori; [10]
  MIC: 0.032 µg/mL (≈ 0.0876 µM)
Helicobacter pylori; [11]
  MIC: 0.06 µg/mL (≈ 0.164 µM)

## CC[C@@H](CO)NCCN[C@@H](CC)CO [Ethambutol]
[1]
  activity at 0.15 µg/mL: 179%
  activity at 0.31 µg/mL: 152%
  activity at 0.62 µg/mL: 98.8%
  activity at 1.25 µg/mL: 148%
  activity at 2.5 µg/mL: 54.8%
  activity at 5 µg/mL: 53.1%

## NNC(=O)c1ccncc1 [Isoniazid, reference compound]
[1]
  activity at 0.15 µg/mL: 158%
  activity at 0.31 µg/mL: 122%
  activity at 0.62 µg/mL: 110%
  activity at 1.25 µg/mL: 51.1%
  activity at 2.5 µg/mL: 34.1%
  activity at 5 µg/mL: 11.4%
[2]; 0.03 μg/mL, day 1
  RLU values: 20360 RLU
[2]; 0.03 μg/mL, day 2
  RLU values: 61355 RLU
[2]; 0.03 μg/mL, day 3
  RLU values: 89528 RLU
[2]; 0.03 μg/mL, day 4
  RLU values: 68253 RLU
[2]; 0.03 μg/mL, day 7
  RLU values: 89032 RLU
[2]; 0.06 μg/mL, day 1
  RLU values: 32192 RLU
[2]; 0.06 μg/mL, day 2
  RLU values: 36680 RLU
[2]; 0.06 μg/mL, day 3
  RLU values: 40344 RLU
[2]; 0.06 μg/mL, day 4
  RLU values: 27408 RLU
[2]; 0.06 μg/mL, day 7
  RLU values: 15855 RLU
[2]; 0.13 μg/mL, day 1
  RLU values: 31113 RLU
[2]; 0.13 μg/mL, day 2
  RLU values: 33898 RLU
[2]; 0.13 μg/mL, day 3
  RLU values: 36634 RLU
[2]; 0.13 μg/mL, day 4
  RLU values: 25282 RLU
[2]; 0.13 μg/mL, day 7
  RLU values: 13373 RLU

## Cc1ncc([N+](=O)[O-])n1CCO [Metronidazole, reference compound]
Helicobacter pylori
  MICs of control drugs relative to expected values: within the expected values
Helicobacter pylori; [5]
  MIC: 32 µg/mL (≈ 187 µM)
Helicobacter pylori; [6]
  MIC: 0.25 µg/mL (≈ 1.46 µM)
Helicobacter pylori; [7]
  MIC: 1 µg/mL (≈ 5.84 µM)
Helicobacter pylori; [8]
  MIC: 0.25 µg/mL (≈ 1.46 µM)
Helicobacter pylori; [9]
  MIC: 0.032 µg/mL (≈ 0.187 µM)
Helicobacter pylori; [10]
  MIC: 32 µg/mL (≈ 187 µM)
Helicobacter pylori; 72 h, read-out: MIC against Helicobacter pylori, strain B40, Met-S, Clar-S (Table 5B)
  MIC: < 0.5 µg/mL
Helicobacter pylori; 72 h, read-out: MIC against Helicobacter pylori, strain B76, Met-R, Clar-S (Table 5B)
  MIC: 8 µg/mL (≈ 46.7 µM)
Helicobacter pylori; 72 h, read-out: MIC against Helicobacter pylori, strain C1649, Met-R, Clar-R (Table 5B)
  MIC: 16 µg/mL (≈ 93.5 µM)
Helicobacter pylori; 72 h, read-out: MIC against Helicobacter pylori, strain C11403, Met-S, Clar-R (Table 5B)
  MIC: < 0.5 µg/mL
Helicobacter pylori; 72 h, read-out: MIC against Helicobacter pylori, strain C19765 (Table 5B)
  MIC: 8 µg/mL (≈ 46.7 µM)
Helicobacter pylori; 72 h, read-out: MIC against Helicobacter pylori, strain RD26, Met-S, Clar-S (Table 5B)
  MIC: 1 µg/mL (≈ 5.84 µM)
Helicobacter pylori; 72 h, read-out: MIC against Helicobacter pylori, strain rd26, Met-S, Clar-S (Table 5B)
  MIC: 1 µg/mL (≈ 5.84 µM)
Helicobacter pylori; [11]
  MIC: 128 µg/mL (≈ 748 µM)
Helicobacter pylori; ATCC43504, 72 h, read-out: MIC against Helicobacter pylori, strain ATCC 43504, Met-R, Clar-S (Table 5B)
  MIC: 128 to 256 µg/mL (≈ 748 to 1500 µM)
Helicobacter pylori; ATCC43526, 72 h, read-out: MIC against Helicobacter pylori, strain ATCC 43526, Met-R, Clar-S (Table 5B)
  MIC: 16 µg/mL (≈ 93.5 µM)
Helicobacter pylori; ATCC43579, 72 h, read-out: MIC against Helicobacter pylori, strain ATCC 43579, Met-S, Clar-S (Table 5B)
  MIC: 2 µg/mL (≈ 11.7 µM)
Helicobacter pylori; ATCC43629, 72 h, read-out: MIC against Helicobacter pylori, strain ATCC 43629, Met-S, Clar-S (Table 5B)
  MIC: < 0.5 µg/mL

## CCCCCCCCO[C@@H]1COc2nc([N+](=O)[O-])cn2C1 [PA-602, 3S n-Octyloxy-6-nitro-2H-3,4-dihydro-[2-1b]imidazopyran]
[3]
  MIC: < 5 µg/mL
[4]
  MIC: 3.12 µg/mL (≈ 10.5 µM)

## O=[N+]([O-])c1cn2c(n1)OC[C@@H](OCc1ccc(C(F)(F)F)cc1C(F)(F)F)C2 [PA-646]
[3]
  MIC: < 5 µg/mL
[4]
  MIC: 3.12 µg/mL (≈ 7.59 µM)

## COc1ccc(CO[C@@H]2COc3nc([N+](=O)[O-])cn3C2)cc1 [PA-736]
[3]
  MIC: 8 µg/mL (≈ 26.2 µM)
Cryptosporidium parvum; 25 μg/mL
  inhibition at 25 µg/mL: -3.2%
Cryptosporidium parvum; 50 μg/mL
  inhibition at 50 µg/mL: 3%
Cryptosporidium parvum; 100 μg/mL
  inhibition at 100 µg/mL: 45%
Cryptosporidium parvum; 200 μg/mL
  inhibition at 200 µg/mL: 97.7%

## O=[N+]([O-])c1cn2c(n1)OC[C@@H](OCc1ccc(Oc3ccccc3)cc1)C2 [PA-1122]
[3]
  MIC: 0.06 µg/mL (≈ 0.163 µM)
Cryptosporidium parvum; 25 μg/mL
  inhibition at 25 µg/mL: -1.8%
Cryptosporidium parvum; 50 μg/mL
  inhibition at 50 µg/mL: 17.8%
Cryptosporidium parvum; 100 μg/mL
  inhibition at 100 µg/mL: 61%
Cryptosporidium parvum; 200 μg/mL
  inhibition at 200 µg/mL: 83.5%

## O=C(N[C@@H]1COc2nc([N+](=O)[O-])cn2C1)c1ccc(OC(F)(F)F)cc1 [PA-1150]
[3]
  MIC: 0.5 µg/mL (≈ 1.34 µM)
Cryptosporidium parvum; 25 μg/mL
  inhibition at 25 µg/mL: 4.8%
Cryptosporidium parvum; 50 μg/mL
  inhibition at 50 µg/mL: 1.7%
Cryptosporidium parvum; 100 μg/mL
  inhibition at 100 µg/mL: 30%
Cryptosporidium parvum; 200 μg/mL
  inhibition at 200 µg/mL: 96.2%

## COC(C(=O)N[C@@H]1COc2nc([N+](=O)[O-])cn2C1)(c1ccccc1)C(F)(F)F (stereo partly drawn) [PA-1170]
[3]
  MIC, column A, 3(S) compounds: 0.13
Cryptosporidium parvum; 25 μg/mL
  Percent Inhibition of C. parvum: -3%
Cryptosporidium parvum; 50 μg/mL
  Percent Inhibition of C. parvum: -6%
Cryptosporidium parvum; 100 μg/mL
  Percent Inhibition of C. parvum: 16%
Cryptosporidium parvum; 200 μg/mL
  Percent Inhibition of C. parvum: -3.6%

## O=C(Nc1ccc(Cl)cc1)N[C@@H]1COc2nc([N+](=O)[O-])cn2C1 [PA-1282, 4-Chlorophenyl Urea of 3S 3-Amino-6-nitro-3,4-dihydro-[2-1b]imidazopyran]
[3]
  MIC: ≤ 0.002 µg/mL

## O=C(Nc1ccc(OC(F)(F)F)cc1)N[C@@H]1COc2nc([N+](=O)[O-])cn2C1 [PA-1298]
[3]
  MIC: 0.015 µg/mL (≈ 0.0387 µM)
Cryptosporidium parvum; 200 μg/mL, HCT-8 monolayers
  Toxic (given in place of percent inhibition): Toxic
Cryptosporidium parvum; 25 μg/mL
  inhibition at 25 µg/mL: 11.9%
Cryptosporidium parvum; 50 μg/mL
  inhibition at 50 µg/mL: 30%
Cryptosporidium parvum; 100 μg/mL
  inhibition at 100 µg/mL: 85%

## [H]/N=C(/N)N[C@H]1[C@H](O)[C@@H](O)[C@H](O[C@@H]2O[C@@H](C)[C@](O)(C=O)[C@H]2O[C@@H]2O[C@@H](CO)[C@H](O)[C@@H](O)[C@@H]2NC)[C@@H](N/C(N)=N\[H])[C@@H]1O [Streptomycin]
[1]
  activity at 0.15 µg/mL: 63.5%
  activity at 0.31 µg/mL: 39.8%
  activity at 0.62 µg/mL: 19.6%
  activity at 1.25 µg/mL: 11.7%
  activity at 2.5 µg/mL: 8%
  activity at 5 µg/mL: 4.4%
